Reference: patent US20220193076A1, “METHODS OF TREATING BREAST CANCER WITH TUCATINIB” (Seagen Inc., priority 2019, published 2022)
Values joined by “and” are separate entries in the source; they are usually repeats but may differ in a detail not shown here. Equal values may be shown once.

Tests used:
[1] = biological target: T1, organic cation transporter (OCT)2 (Homo sapiens, UniProt O15244); test: In vitro inhibition of OCT2 activity; format: in vitro ADME; conditions: read-out: 50% inhibitory concentration (IC50), OCT2
T1 sequence (O15244 1-555): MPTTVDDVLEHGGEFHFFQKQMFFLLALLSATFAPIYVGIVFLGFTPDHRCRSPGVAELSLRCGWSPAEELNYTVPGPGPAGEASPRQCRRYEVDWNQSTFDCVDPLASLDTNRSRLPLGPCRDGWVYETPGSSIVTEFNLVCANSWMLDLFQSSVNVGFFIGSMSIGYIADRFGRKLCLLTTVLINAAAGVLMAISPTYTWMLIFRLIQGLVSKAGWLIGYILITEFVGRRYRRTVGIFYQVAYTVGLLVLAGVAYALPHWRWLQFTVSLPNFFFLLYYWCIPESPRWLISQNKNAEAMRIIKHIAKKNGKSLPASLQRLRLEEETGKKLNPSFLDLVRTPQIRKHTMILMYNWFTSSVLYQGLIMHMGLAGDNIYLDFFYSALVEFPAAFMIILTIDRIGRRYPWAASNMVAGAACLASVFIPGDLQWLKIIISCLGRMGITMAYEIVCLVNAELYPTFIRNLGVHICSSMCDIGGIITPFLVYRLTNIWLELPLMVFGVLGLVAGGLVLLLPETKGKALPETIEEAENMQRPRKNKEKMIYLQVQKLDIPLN

[2] = biological target: bile salt export pump (BSEP) (Homo sapiens, UniProt O95342); test: In vitro inhibition of BSEP activity; format: in vitro ADME
Sequence of bile salt export pump (BSEP) (O95342 whole entry, species assumed): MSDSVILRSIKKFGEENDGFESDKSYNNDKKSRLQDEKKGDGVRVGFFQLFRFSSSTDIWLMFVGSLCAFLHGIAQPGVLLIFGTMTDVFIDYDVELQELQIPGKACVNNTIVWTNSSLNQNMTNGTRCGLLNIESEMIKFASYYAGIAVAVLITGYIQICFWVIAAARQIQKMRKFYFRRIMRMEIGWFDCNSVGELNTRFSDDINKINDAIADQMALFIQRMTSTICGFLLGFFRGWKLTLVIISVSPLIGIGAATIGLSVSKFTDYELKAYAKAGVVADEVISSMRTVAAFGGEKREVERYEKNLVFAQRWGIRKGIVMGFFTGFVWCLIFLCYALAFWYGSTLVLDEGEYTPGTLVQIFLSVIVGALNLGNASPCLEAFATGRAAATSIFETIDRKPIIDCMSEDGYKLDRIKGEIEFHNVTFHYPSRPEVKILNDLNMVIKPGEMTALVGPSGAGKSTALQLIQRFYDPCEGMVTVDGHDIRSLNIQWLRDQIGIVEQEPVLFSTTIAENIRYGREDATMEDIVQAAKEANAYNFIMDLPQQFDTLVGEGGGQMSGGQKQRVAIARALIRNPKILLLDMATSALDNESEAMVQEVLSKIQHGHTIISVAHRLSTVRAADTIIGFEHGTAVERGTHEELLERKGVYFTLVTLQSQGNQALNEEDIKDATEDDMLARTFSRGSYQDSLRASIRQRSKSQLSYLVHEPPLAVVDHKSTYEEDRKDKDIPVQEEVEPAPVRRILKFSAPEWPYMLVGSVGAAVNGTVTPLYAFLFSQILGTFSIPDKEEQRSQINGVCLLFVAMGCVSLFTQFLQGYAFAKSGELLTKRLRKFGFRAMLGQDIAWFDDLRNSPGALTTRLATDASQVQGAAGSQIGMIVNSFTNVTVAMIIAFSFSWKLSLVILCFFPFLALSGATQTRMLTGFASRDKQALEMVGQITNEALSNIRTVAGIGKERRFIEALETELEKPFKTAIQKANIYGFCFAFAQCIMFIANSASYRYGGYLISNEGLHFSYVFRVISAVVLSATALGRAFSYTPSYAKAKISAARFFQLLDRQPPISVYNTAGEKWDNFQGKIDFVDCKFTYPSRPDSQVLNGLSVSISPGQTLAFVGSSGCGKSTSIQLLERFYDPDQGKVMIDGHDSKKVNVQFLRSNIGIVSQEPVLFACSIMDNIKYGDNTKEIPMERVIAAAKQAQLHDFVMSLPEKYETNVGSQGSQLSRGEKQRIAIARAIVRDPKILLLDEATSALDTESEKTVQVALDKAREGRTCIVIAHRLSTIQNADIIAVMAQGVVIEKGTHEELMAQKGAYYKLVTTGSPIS

MATE2K = MATE2K (Homo sapiens, UniProt Q86VL8); test: In vitro inhibition of MATE2K transporter; format: in vitro ADME
Sequence of MATE2K (Q86VL8 1-566 isoform Q86VL8-3): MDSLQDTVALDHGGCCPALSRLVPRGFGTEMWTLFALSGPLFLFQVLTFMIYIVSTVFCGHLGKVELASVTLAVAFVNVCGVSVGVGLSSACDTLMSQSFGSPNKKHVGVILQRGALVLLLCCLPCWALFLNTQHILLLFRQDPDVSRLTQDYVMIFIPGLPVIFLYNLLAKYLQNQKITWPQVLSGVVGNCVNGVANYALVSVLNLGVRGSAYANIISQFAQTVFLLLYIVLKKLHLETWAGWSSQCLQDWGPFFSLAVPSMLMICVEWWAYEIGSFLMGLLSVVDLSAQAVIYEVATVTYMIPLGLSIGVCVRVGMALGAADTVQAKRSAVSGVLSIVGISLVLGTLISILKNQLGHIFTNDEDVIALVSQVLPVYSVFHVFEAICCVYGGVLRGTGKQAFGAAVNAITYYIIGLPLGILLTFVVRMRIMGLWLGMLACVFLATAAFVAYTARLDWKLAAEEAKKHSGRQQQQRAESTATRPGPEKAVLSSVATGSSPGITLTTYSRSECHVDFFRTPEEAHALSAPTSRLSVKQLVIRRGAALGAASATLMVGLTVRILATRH

[3] = Example 1: renal function (iohexol aGFR, serum creatinine, urine albumin); format: in vivo, human
[4] = Example 1: plasma tucatinib trough concentrations; format: in vivo, human; conditions: 300 mg tucatinib bid from Day 2
CYP3A4 = CYP3A4 (Homo sapiens, UniProt P08684); test: Ki determination in pooled human liver microsomes, midazolam 1'-hydroxylase (Example 5); format: in vitro ADME
Sequence of CYP3A4 (P08684 whole entry): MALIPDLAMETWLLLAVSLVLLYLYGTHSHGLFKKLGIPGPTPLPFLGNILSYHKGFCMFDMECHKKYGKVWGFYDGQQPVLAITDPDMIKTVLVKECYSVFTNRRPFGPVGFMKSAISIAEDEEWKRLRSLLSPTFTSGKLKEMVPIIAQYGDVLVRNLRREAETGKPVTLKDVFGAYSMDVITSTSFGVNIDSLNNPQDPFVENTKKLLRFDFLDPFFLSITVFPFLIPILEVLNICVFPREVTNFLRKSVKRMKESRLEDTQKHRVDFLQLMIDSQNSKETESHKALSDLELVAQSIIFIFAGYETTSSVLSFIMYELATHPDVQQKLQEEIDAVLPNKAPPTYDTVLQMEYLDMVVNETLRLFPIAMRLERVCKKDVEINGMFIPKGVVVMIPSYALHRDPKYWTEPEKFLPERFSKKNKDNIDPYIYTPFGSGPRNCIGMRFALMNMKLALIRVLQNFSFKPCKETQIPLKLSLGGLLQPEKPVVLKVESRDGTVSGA
Experimental: (§1) The objective of this study was to evaluate in vitro the Ki of tucatinib of the following human hepatic cytochrome P450 (CYP) enzymes (CYP2C8, CYP2C9, and CYP3A4) and UGT1A1. […] Pooled human liver microsomes (HLM) from 150 individuals (79 males and 71 females) were obtained from BioreclamationIVT (Baltimore, Md.) and stored at approximately −70° C. The microsomes were characterized by the supplier for total protein and selected cytochrome P450 activities. […] The final organic solvent contribution was ≤1%. Incubations were terminated by the addition of chilled acetonitrile containing a stable isotope-labeled internal standard. […] Samples were analyzed by liquid chromatography with tandem mass spectrometry (LC-MS/MS). Analyte concentrations were quantified by LC-MS/MS and interpolated from standard curves of authentic analyte. […] Activities were calculated based on analyte concentration, incubation time, and protein concentration. Enzymatic activity (pmol/minute/mg protein) was expressed as the formation of the analyte per final protein concentration per incubation time. Activity remaining was expressed as the enzymatic activity at each concentration point of the test article normalized by the solvent control mean activity. […]

P-glycoprotein (P-gp) = P-glycoprotein (P-gp) (Homo sapiens, UniProt P08183); test: P-gp substrate assessment and inhibition of P-gp-mediated efflux of digoxin; format: in vitro ADME
Sequence of P-glycoprotein (P-gp) (P08183 whole entry): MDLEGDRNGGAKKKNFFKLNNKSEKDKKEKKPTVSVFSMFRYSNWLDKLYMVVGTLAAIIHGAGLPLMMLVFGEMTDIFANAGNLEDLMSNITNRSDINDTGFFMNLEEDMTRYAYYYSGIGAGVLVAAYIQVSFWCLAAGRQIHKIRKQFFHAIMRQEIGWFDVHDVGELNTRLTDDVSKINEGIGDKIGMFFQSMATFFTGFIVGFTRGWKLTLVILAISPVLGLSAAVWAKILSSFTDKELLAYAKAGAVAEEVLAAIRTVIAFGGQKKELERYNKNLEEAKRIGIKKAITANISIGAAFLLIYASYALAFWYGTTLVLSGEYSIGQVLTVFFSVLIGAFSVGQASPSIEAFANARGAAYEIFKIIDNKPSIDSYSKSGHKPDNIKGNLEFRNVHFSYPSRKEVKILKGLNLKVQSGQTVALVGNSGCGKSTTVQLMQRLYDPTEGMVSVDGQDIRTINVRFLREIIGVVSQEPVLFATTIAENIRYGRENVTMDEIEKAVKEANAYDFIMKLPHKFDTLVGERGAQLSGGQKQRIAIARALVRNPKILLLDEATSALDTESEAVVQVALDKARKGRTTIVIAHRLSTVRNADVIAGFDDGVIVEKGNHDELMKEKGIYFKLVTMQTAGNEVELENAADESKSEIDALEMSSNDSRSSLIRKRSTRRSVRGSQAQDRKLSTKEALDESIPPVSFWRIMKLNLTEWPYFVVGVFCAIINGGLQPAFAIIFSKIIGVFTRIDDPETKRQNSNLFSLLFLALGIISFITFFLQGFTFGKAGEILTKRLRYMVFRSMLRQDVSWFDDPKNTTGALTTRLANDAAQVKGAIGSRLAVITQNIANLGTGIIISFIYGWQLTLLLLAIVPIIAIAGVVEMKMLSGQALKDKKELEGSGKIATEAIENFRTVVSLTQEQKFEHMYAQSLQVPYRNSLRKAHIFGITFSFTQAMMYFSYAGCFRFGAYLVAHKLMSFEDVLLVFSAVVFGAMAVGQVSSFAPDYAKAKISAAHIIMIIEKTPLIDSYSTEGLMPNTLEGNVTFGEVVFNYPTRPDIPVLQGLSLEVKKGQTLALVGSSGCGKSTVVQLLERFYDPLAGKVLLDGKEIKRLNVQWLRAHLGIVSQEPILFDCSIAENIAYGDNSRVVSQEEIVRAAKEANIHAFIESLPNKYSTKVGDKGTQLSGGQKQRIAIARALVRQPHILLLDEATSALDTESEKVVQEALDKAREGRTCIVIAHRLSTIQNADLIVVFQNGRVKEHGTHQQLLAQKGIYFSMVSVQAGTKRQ

CYP3A4 and CYP2C8 = test: Example 2 Part B: effect of inducer rifampin on PK of tucatinib; format: in vivo, human; conditions: tucatinib 300 mg single dose in combination with rifampin vs tucatinib alone
Experimental: They were discharged on Day 12 after completion of the in-patient assessments. […] On Day 3 through Day 11, each subject received single oral doses of 600 mg of rifampin once daily (QD). On Day 10, each subject received a single oral dose of 300 mg of tucatinib. […] Other noncompartmental PK parameters may be reported. Additionally, blood samples were collected for determination of trough levels of rifampin prior to morning dosing on the days indicated in FIG. 6.

OCT2 = biological target: T2, OCT2 (Homo sapiens, UniProt O15244); test: Inhibition of OCT2 mediated transport of creatinine in transfected MDCK-II cells (Example 3); format: in vitro ADME; conditions: probe substrate creatinine, 0.03 to 10 μM
T2 construct: expressed in transfected cells; host or cells: MDCK-II
T2 sequence (O15244 1-555): T1 sequence (O15244 1-555)
Experimental: Substrate dependent inhibition is common among transporters including MATE1 and MATE2-K. In this study, creatinine was used as the probe substrate to assess the inhibitory potency of Tucatinib and ONT-993. OAT2, OCT2, OCT3, MATE1, and MATE2-K are the renal transporters identified to transport creatinine. Tucatinib and its metabolite ONT-993 were tested as potential inhibitors of OAT2, OCT2, MATE1, and MATE2-K mediated transport using creatinine as a probe substrate.
For this study, MDCK-II were maintained in DMEM with low glucose and 10% FBS. Cells were seeded at 60K±10K cells/well on 96-well, transwell membrane plates approximately 24 hours before transfection. Transport assays were carried out approximately 48 hours after transfection. Cells were transfected and treated to express the transporter of interest or treated with a control vector. The transport of creatinine was determined by radiometric detection.
Net transporter mediated uptake of the substrate by each transporter was calculated as follows: Net Transporter Mediated Substrate Uptake (pmol/min/cm^2)=(Cellular accumulation in the presence of the transporter)−(Mean cellular accumulation in the absence of the transporter.
Percent inhibition was calculated as follows: Percent inhibition=100−(100*(transporter mediated uptake)with inhibition/(transporter mediated uptake)without inhibition) […]

CYP2C9 = CYP2C9 (Homo sapiens, UniProt P11712); test: Ki determination in pooled human liver microsomes, diclofenac 4'-hydroxylase (Example 5); format: in vitro ADME; design: endogenous in cells; host or cells: healthy human subjects, in vivo
Sequence of CYP2C9 (P11712 whole entry): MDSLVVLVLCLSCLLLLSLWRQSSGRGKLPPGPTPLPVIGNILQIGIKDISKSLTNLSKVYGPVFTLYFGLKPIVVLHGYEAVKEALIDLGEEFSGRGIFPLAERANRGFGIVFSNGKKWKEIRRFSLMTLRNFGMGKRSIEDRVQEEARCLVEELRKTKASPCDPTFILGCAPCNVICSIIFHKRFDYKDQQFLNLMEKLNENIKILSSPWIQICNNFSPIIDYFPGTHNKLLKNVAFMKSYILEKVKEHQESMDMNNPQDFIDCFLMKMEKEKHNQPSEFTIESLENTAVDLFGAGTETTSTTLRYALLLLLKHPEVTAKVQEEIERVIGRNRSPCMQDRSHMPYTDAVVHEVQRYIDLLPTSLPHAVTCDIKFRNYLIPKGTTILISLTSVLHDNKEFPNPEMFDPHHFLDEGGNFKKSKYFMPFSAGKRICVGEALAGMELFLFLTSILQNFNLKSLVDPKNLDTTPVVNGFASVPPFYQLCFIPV
Experimental: as §1

MATE1/2K = test: Phase 1 drug-drug interaction study: effect of tucatinib on metformin pharmacokinetics (Example 1); conditions: healthy subjects, tucatinib 300 mg bid
[5] = following multiple doses of tucatinib

In the case of Cc1cc(Nc2ncnc3ccc(NC4=NC(C)(C)CO4)cc23)ccc1Oc1ccn2ncnc2c1 [tucatinib], the IC50 [1] is reported as 14.7 µM, the IC50 [2] is reported as 8.48 µM and the IC50 (MATE2K) is reported as 0.14 µM. For the same compound, the Renal damage ([3]; conclusion of Example 1) was “does not cause renal damage”, the “Change in mean serum creatinine” value [3, 5] was “increase” and the “Measures of renal function including aGFR as assessed by iohexol and urine albumin levels” value [3, 5] was “not affected”. The “Steady-state plasma concentrations reached by” value [4] was no more than 6 days, the “Inhibition mechanism, CYP3A4” value (CYP3A4) was “competitive inhibition” and the Ki (CYP3A4; marker substrate midazolam) was 0.81 µM and 0.805 µM. For the same compound, the IC50 (P-glycoprotein (P-gp)) was 10 to 30 µM, the P-gp substrate status (P-glycoprotein (P-gp)) was “P-glycoprotein (P-gp) substrate” and the “Geometric LS mean ratio (90% CI), AUC0-∞” value (CYP3A4 and CYP2C8) was 0.520 (0.452, 0.597). The “Geometric LS mean ratio (90% CI), AUClast” value (CYP3A4 and CYP2C8) was 0.517 (0.449, 0.596), the “Geometric LS mean ratio (90% CI), Cmax” value (CYP3A4 and CYP2C8) was 0.632 (0.531, 0.753) and the IC50 (OCT2) was 0.107 ± 0.0379 µM. The “Inhibition mechanism, CYP2C9” value (CYP2C9) was “competitive inhibition”, the Ki (CYP2C9; marker substrate diclofenac) was 4.57 µM and the “Inhibition of the renal OCT2/MATE1/MATE2-K pathway in vivo” value (MATE1/2K) was “weak inhibitor”.
